Data on 6 compounds can be found in patent publication US6936585B2, “Corticotropin releasing factor 2 receptor agonists” (priority 2002, dated 2005).

SMILES strings stand for the structures. pEC50: −log10 of the molar value. Peptide text beside a SMILES is read from it. Some results are limits rather than exact numbers.

One experiment concerns the target T1, CRF1R (Homo sapiens, UniProt P34998).
T1 sequence (P34998 24-415): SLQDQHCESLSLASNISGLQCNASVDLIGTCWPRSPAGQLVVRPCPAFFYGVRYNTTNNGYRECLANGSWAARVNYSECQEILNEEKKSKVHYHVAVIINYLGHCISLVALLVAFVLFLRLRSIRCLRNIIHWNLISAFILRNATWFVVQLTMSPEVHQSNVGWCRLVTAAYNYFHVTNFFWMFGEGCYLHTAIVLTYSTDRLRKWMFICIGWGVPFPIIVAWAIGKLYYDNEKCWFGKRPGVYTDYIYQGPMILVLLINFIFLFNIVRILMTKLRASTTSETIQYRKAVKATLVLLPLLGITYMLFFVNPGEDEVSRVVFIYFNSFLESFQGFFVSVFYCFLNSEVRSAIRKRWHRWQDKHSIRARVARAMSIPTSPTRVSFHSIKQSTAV
Description: CRF1R agonist activation (EC50 / Emax), called comparative CRF binding. The format is cell-based. As to conditions: for Emax: read-out: CRF1R Emax; for pEC50: read-out: CRF1R EC50. The method in brief:
(§1)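 Agonism is scored from cAMP rise, assayed in lysates or through CRE-driven reporter expression, after peptide contact with cells bearing human CRF2R or CRF1R, compared against vehicle-treated cells.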

For a further experiment, the target named is T2, CRF2R (Homo sapiens, UniProt Q13324).
T2 sequence (Q13324 1-411): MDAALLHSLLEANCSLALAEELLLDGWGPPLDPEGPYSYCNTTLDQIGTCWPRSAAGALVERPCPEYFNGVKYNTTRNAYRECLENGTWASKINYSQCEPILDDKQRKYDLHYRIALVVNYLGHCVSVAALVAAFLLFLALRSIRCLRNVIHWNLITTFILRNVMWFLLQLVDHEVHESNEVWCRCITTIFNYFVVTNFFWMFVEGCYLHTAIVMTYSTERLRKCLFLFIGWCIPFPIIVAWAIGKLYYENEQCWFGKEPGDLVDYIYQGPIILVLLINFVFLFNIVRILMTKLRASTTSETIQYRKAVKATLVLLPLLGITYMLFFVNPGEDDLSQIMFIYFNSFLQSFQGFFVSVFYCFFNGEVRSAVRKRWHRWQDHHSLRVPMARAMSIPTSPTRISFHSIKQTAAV
Nature of the experiment: CRF2R agonist activation (EC50 / Emax), called comparative CRF binding. The format is cell-based. The conditions noted are these: for Emax: read-out: CRF2R Emax; for pEC50: read-out: CRF2R EC50. The essentials:
as §1

With `CC[C@H](C)[C@H](N)C(=O)N[C@H](C(=O)N[C@@H](CC(C)C)C(=O)N[C@@H](CO)C(=O)N[C@@H](CC(C)C)C(=O)N[C@@H](CC(=O)O)C(=O)N[C@H](C(=O)N1CCC[C@H]1C(=O)N[C@H](C(=O)NCC(=O)N[C@@H](CC(C)C)C(=O)N[C@@H](CC(C)C)C(=O)N[C@@H](CCC(N)=O)C(=O)N[C@H](C(=O)N[C@@H](CC(C)C)C(=O)N[C@@H](CC(C)C)C(=O)N[C@@H](CCC(=O)O)C(=O)N[C@@H](CCC(N)=O)C(=O)N[C@@H](CCC(=O)O)C(=O)N[C@@H](CCCCN)C(=O)N[C@@H](CCC(N)=O)C(=O)N[C@@H](CCC(=O)O)C(=O)N[C@@H](C)C(=O)N[C@@H](C)C(=O)N[C@@H](CCCNC(=N)N)C(=O)N[C@@H](CCC(=O)O)C(=O)N[C@@H](CCC(N)=O)C(=O)N[C@@H](C)C(=O)N[C@H](C(=O)N[C@H](C(=O)N[C@@H](CC(N)=O)C(=O)N[C@@H](C)C(=O)N[C@@H](CCCNC(=N)N)C(=O)N[C@H](C(=O)N[C@@H](CC(C)C)C(=O)N[C@@H](C)C(=O)N[C@@H](CCCNC(=N)N)C(=O)N[C@H](C(N)=O)C(C)C)[C@@H](C)CC)[C@@H](C)O)[C@@H](C)O)[C@@H](C)CC)[C@@H](C)CC)C(C)C)C(C)C` [compound 125] (H-IVLSLDVPIGLLQILLEQEKQEAAREQATTNARILARV-NH2; N-terminus assumed), the maximal response (Emax) at CRF1R stood at 9%; at CRF2R, 99%.

Turning to `CC[C@H](C)[C@H](N)C(=O)N[C@H](C(=O)N[C@@H](CC(C)C)C(=O)N[C@@H](CO)C(=O)N[C@@H](CC(C)C)C(=O)N[C@@H](CC(=O)O)C(=O)N[C@H](C(=O)N1CCC[C@H]1C(=O)N[C@H](C(=O)NCC(=O)N[C@@H](CC(C)C)C(=O)N[C@@H](CC(C)C)C(=O)N[C@@H](CCC(N)=O)C(=O)N[C@H](C(=O)N[C@@H](CC(C)C)C(=O)N[C@@H](CC(C)C)C(=O)N[C@@H](CCC(=O)O)C(=O)N[C@@H](CCC(N)=O)C(=O)N[C@H](C(=O)N[C@@H](CCCNC(=N)N)C(=O)N[C@@H](C)C(=O)N[C@@H](CC(=O)O)C(=O)N[C@@H](C)C(=O)N[C@@H](C)C(=O)N[C@@H](CCCNC(=N)N)C(=O)N[C@@H](CCC(=O)O)C(=O)N[C@@H](CCC(N)=O)C(=O)N[C@@H](C)C(=O)N[C@H](C(=O)N[C@H](C(=O)N[C@@H](CC(N)=O)C(=O)N[C@@H](C)C(=O)N[C@@H](CCCNC(=N)N)C(=O)N[C@H](C(=O)N[C@@H](CC(C)C)C(=O)N[C@@H](C)C(=O)N[C@@H](CCCNC(=N)N)C(=O)N[C@H](C(N)=O)C(C)C)[C@@H](C)CC)[C@@H](C)O)[C@@H](C)O)[C@@H](C)O)[C@@H](C)CC)[C@@H](C)CC)C(C)C)C(C)C` [compound 126] (H-IVLSLDVPIGLLQILLEQTRADAAREQATTNARILARV-NH2; N-terminus assumed), the pEC50 on CRF1R was below 7.00; at CRF2R, 7.89. The Emax on CRF1R came out at 7%; at CRF2R, 91%.

As for `CC[C@H](C)[C@H](N)C(=O)N[C@H](C(=O)N[C@@H](CC(C)C)C(=O)N[C@@H](CO)C(=O)N[C@@H](CC(C)C)C(=O)N[C@@H](CC(=O)O)C(=O)N[C@H](C(=O)N1CCC[C@H]1C(=O)N[C@H](C(=O)NCC(=O)N[C@@H](CC(C)C)C(=O)N[C@@H](CC(C)C)C(=O)N[C@@H](CCC(N)=O)C(=O)N[C@H](C(=O)N[C@@H](CC(C)C)C(=O)N[C@@H](CC(C)C)C(=O)N[C@@H](CCC(=O)O)C(=O)N[C@@H](CCC(N)=O)C(=O)N[C@H](C(=O)N[C@@H](CCCNC(=N)N)C(=O)N[C@@H](C)C(=O)N[C@@H](CCCNC(=N)N)C(=O)N[C@@H](C)C(=O)N[C@@H](C)C(=O)N[C@@H](CCCNC(=N)N)C(=O)N[C@@H](CCC(=O)O)C(=O)N[C@@H](CCC(N)=O)C(=O)N[C@@H](C)C(=O)N[C@H](C(=O)N[C@H](C(=O)N[C@@H](CC(N)=O)C(=O)N[C@@H](C)C(=O)N[C@@H](CCCNC(=N)N)C(=O)N[C@H](C(=O)N[C@@H](CC(C)C)C(=O)N[C@@H](C)C(=O)N[C@@H](CCCNC(=N)N)C(=O)N[C@H](C(N)=O)C(C)C)[C@@H](C)CC)[C@@H](C)O)[C@@H](C)O)[C@@H](C)O)[C@@H](C)CC)[C@@H](C)CC)C(C)C)C(C)C` [compound 128] (H-IVLSLDVPIGLLQILLEQTRARAAREQATTNARILARV-NH2; N-terminus assumed), at CRF1R, the negative logarithm of the EC50 (pEC50) was below 7.00 and the Emax is 8%. At CRF2R, the pEC50 is 8.55 and the Emax was 98%.

For the compound `CC[C@H](C)[C@H](N)C(=O)N[C@H](C(=O)N[C@@H](CC(C)C)C(=O)N[C@@H](CO)C(=O)N[C@@H](CC(C)C)C(=O)N[C@@H](CC(=O)O)C(=O)N[C@H](C(=O)N1CCC[C@H]1C(=O)N[C@H](C(=O)NCC(=O)N[C@@H](CC(C)C)C(=O)N[C@@H](CC(C)C)C(=O)N[C@@H](CCC(N)=O)C(=O)N[C@H](C(=O)N[C@@H](CC(C)C)C(=O)N[C@@H](CC(C)C)C(=O)N[C@@H](CCC(=O)O)C(=O)N[C@@H](CCC(N)=O)C(=O)N[C@@H](C)C(=O)N[C@@H](CCCNC(=N)N)C(=O)N[C@@H](C)C(=O)N[C@@H](CC(=O)O)C(=O)N[C@@H](C)C(=O)N[C@@H](C)C(=O)N[C@@H](CCCNC(=N)N)C(=O)N[C@@H](CCC(=O)O)C(=O)N[C@@H](CCC(N)=O)C(=O)N[C@@H](C)C(=O)N[C@H](C(=O)N[C@H](C(=O)N[C@@H](CC(N)=O)C(=O)N[C@@H](C)C(=O)N[C@@H](CCCNC(=N)N)C(=O)N[C@H](C(=O)N[C@@H](CC(C)C)C(=O)N[C@@H](C)C(=O)N[C@@H](CCCNC(=N)N)C(=O)N[C@H](C(N)=O)C(C)C)[C@@H](C)CC)[C@@H](C)O)[C@@H](C)O)[C@@H](C)CC)[C@@H](C)CC)C(C)C)C(C)C` [compound 130] (H-IVLSLDVPIGLLQILLEQARADAAREQATTNARILARV-NH2; N-terminus assumed), on CRF1R, the pEC50 was below 7.00 and the Emax was 9%. In addition, at CRF2R, the negative-log EC50 (pEC50) is 8.07 and the maximal response (Emax) worked out at 92%.

For `CC[C@H](C)[C@H](N)C(=O)N[C@H](C(=O)N[C@@H](CC(C)C)C(=O)N[C@@H](CO)C(=O)N[C@@H](CC(C)C)C(=O)N[C@@H](CC(=O)O)C(=O)N[C@H](C(=O)N1CCC[C@H]1C(=O)N[C@H](C(=O)NCC(=O)N[C@@H](CC(C)C)C(=O)N[C@@H](CC(C)C)C(=O)N[C@@H](CCC(N)=O)C(=O)N[C@H](C(=O)N[C@@H](CC(C)C)C(=O)N[C@@H](CC(C)C)C(=O)N[C@@H](CCC(=O)O)C(=O)N[C@@H](CCC(N)=O)C(=O)N[C@@H](C)C(=O)N[C@@H](CCCCN)C(=O)N[C@@H](C)C(=O)N[C@@H](CC(=O)O)C(=O)N[C@@H](C)C(=O)N[C@@H](C)C(=O)N[C@@H](CCCNC(=N)N)C(=O)N[C@@H](CCC(=O)O)C(=O)N[C@@H](CCC(N)=O)C(=O)N[C@@H](C)C(=O)N[C@H](C(=O)N[C@H](C(=O)N[C@@H](CC(N)=O)C(=O)N[C@@H](C)C(=O)N[C@@H](CCCNC(=N)N)C(=O)N[C@H](C(=O)N[C@@H](CC(C)C)C(=O)N[C@@H](C)C(=O)N[C@@H](CCCNC(=N)N)C(=O)N[C@H](C(N)=O)C(C)C)[C@@H](C)CC)[C@@H](C)O)[C@@H](C)O)[C@@H](C)CC)[C@@H](C)CC)C(C)C)C(C)C` [compound 131] (H-IVLSLDVPIGLLQILLEQAKADAAREQATTNARILARV-NH2; N-terminus assumed), on CRF1R, the pEC50 is below 7.00 and the maximal response (Emax) was 8%. For the same compound, at CRF2R, the pEC50 is 8.28 and the Emax was determined as 91%.

In the case of `CC[C@H](C)[C@H](N)C(=O)N[C@H](C(=O)N[C@@H](CC(C)C)C(=O)N[C@@H](CO)C(=O)N[C@@H](CC(C)C)C(=O)N[C@@H](CC(=O)O)C(=O)N[C@H](C(=O)N1CCC[C@H]1C(=O)N[C@H](C(=O)NCC(=O)N[C@@H](CC(C)C)C(=O)N[C@@H](CC(C)C)C(=O)N[C@@H](CCC(N)=O)C(=O)N[C@H](C(=O)N[C@@H](CC(C)C)C(=O)N[C@@H](CC(C)C)C(=O)N[C@@H](CCC(=O)O)C(=O)N[C@@H](CCC(N)=O)C(=O)N[C@@H](CCC(=O)O)C(=O)N[C@@H](CCCCN)C(=O)N[C@@H](CCC(=O)O)C(=O)N[C@@H](CCCCN)C(=O)N[C@@H](CCCCN)C(=O)N[C@@H](CCCNC(=N)N)C(=O)N[C@@H](CCCCN)C(=O)N[C@@H](CCC(=O)O)C(=O)N[C@H](C(=O)N[C@@H](CC(N)=O)C(=O)N[C@@H](C)C(=O)N[C@@H](CCCNC(=N)N)C(=O)N[C@H](C(=O)N[C@@H](CC(C)C)C(=O)N[C@@H](C)C(=O)N[C@@H](CCCNC(=N)N)C(=O)N[C@H](C(N)=O)C(C)C)[C@@H](C)CC)[C@@H](C)O)[C@@H](C)CC)[C@@H](C)CC)C(C)C)C(C)C` [compound 132] (H-IVLSLDVPIGLLQILLEQEKEKKRKETNARILARV-NH2; N-terminus assumed), on CRF1R, the negative-log EC50 (pEC50) is below 7.00 and the Emax is 8%. Further, at CRF2R, the negative-log EC50 (pEC50) was 8.12 and the Emax is 88%.
